From US8828985B2, “Carbamate and urea inhibitors of 11-beta-hydroxysteroid dehydrogenase 1” (Vitae Pharmaceuticals, Inc., priority 2008, dated 2014)
Where two headings read alike, the source gives them in different places.

Target: human 11β-HSD1 (Homo sapiens, UniProt P28845)
Assay: biochemical
Conditions: for inhibition at 0.111 µM / inhibition at 0.1 µM: 1.5 h; for inhibition at 0.111 µM: read-out: Biological Test Example 2 Average % inhibition at 111 nm, at 111 nm; for IC50: Biological Test Example 2 IC50 Range, microsomes from CHO cells overexpressing human 11β-HSD1, SPA
[1] = read-out: Biological Test Example 2 Average % inhibition at 100 nm, at 100 nm

Sequence of human 11β-HSD1 (P28845 whole entry): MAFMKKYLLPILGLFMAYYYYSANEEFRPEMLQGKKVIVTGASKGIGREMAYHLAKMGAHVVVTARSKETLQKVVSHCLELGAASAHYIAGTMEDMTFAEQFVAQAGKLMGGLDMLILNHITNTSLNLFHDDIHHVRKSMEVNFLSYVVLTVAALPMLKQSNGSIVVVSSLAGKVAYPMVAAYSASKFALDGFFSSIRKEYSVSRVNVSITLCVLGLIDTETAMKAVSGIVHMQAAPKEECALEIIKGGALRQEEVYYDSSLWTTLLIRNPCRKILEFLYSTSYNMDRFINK
Description: All reactions are carried out at room temperature in 96 well clear flexible PET Microbeta plates (PerkinElmer). […] The reaction is stopped by adding 50 μl of the SPA beads suspension containing 10 μM 18β-glycyrrhetinic acid, 5 mg/ml protein A coated YSi SPA beads (GE Healthcare) and 3.3 μg/ml of anti-cortisol antibody (East Coast Biologics) in Superblock buffer (Bio-Rad). The plates are then shaken for 120 minutes at room temperature, and the SPA signal corresponding to [^3H]cortisol is measured on a Microbeta plate reader.

Row | SMILES | inhibition at 0.111 µM | IC50 | inhibition at 0.1 µM [1] | inhibition at 0.1 µM (read-out: Biological Test Example 2 Average % inhibition at 100 nm)
1 | CC(C)(C)OC(=O)NC1(c2ccccc2)CCN(C(=O)OC2C3CC4CC(C3)CC2C4)C1 (stereo not drawn) [Example 13, (2-adamantyl) 3-(tert-butoxycarbonylamino)-3-phenylpyrrolidine-1-carboxylate] | – | < 0.1 µM | 87.7% | –
2 | COC(=O)c1cnc(N[C@@H]2CCN(C(=O)O[C@H]3C4CC5CC3C[C@](O)(C5)C4)C2)nc1 [Example 107, Methyl 2-((R)-1-((trans-1-hydroxy-4-adamantyloxy)carbonyl)pyrrolidin-3-ylamino)pyrimidine-5-carboxylate] | – | < 0.1 µM | – | –
3 | N#Cc1ccc(N[C@@H]2CCN(C(=O)OC3C4CC5CC3CC(C(=O)NC3CC3)(C5)C4)C2)nc1 (single isomer, unassigned) [Example 118 Isomer 1] | – | > 0.1 µM | 9.1% | –
4 | N#Cc1ccc(N[C@@H]2CCN(C(=O)NC3C4CC5CC(C4)CC3C5)C2)nc1 (stereo partly drawn) [Example 61, (R)-3-(5-cyanopyridin-2-ylamino)-N-(2-adamantyl)pyrrolidine-1-carboxamide] | – | < 0.1 µM | – | 97.6%
5 | CC(C)(C)OC(=O)NC1(C(F)(F)F)CCN(C(=O)O[C@H]2C3CC4CC2C[C@](C(N)=O)(C4)C3)C1 (stereo partly drawn) [Example 113, (trans-1-carbamoyl-4-adamantyl) 3-(tert-butoxycarbonylamino)-3-(trifluoromethyl)pyrrolidine-1-carboxylate] | – | < 0.1 µM | 92% | –
6 | CN(c1ccc(C#N)cn1)C1CCN(C(=O)O[C@H]2C3CC4CC2C[C@](C(N)=O)(C4)C3)C1 (stereo partly drawn) [Example 74, (trans-1-carbamoyl-4-adamantyl) 3-((5-cyanopyridin-2-yl)(methyl)amino)pyrrolidine-1-carboxylate] | 96.5% | < 0.1 µM | 97.8% | –
7 | O=C(NC1CC1)c1cnc(N[C@@H]2CCN(C(=O)O[C@H]3C4CC5CC3C[C@](O)(C5)C4)C2)nc1 [Example 112, (R)-(trans-1-hydroxy-4-adamantyl) 3-(5-(cyclopropylcarbamoyl)pyrimidin-2-ylamino)pyrrolidine-1-carboxylate] | – | > 0.1 µM | 33.3% | –
8 | N#Cc1ccc(N2CCCC23CCN(C(=O)O[C@H]2C4CC5CC2C[C@](C(N)=O)(C5)C4)C3)nc1 (stereo partly drawn) [Example 75, (trans-1-carbamoyl-4-adamantyl) 1-(5-cyanopyridin-2-yl)-1,7-diazaspiro[4.4]nonane-7-carboxylate] | 97.7% | < 0.1 µM | 98.8% | –
9 | N#Cc1cccnc1N[C@H]1CCN(C(=O)O[C@H]2C3CC4CC2C[C@](C(N)=O)(C4)C3)C1 [Example 66, (S)-(trans-1-carbamoyl-4-adamantyl) 3-(3-cyanopyridin-2-ylamino)pyrrolidine-1-carboxylate] | – | < 0.1 µM | 95.5% | –
10 | CC(C)(C)OC(=O)N1CCCC12CCN(C(=O)NC1C3CC4CC(C3)CC1C4)C2 (stereo not drawn) [Example 58, tert-butyl 7-(2-adamantylcarbamoyl)-1,7-diazaspiro[4.4]nonane-1-carboxylate] | 94.3% | < 0.1 µM | – | –
11 | N#Cc1cnc(N[C@@H]2CCN(C(=O)O[C@H]3C4CC5CC3C[C@](O)(C5)C4)C2)s1 [Example 82, (R)-(trans-1-hydroxy-4-adamantyl) 3-(5-cyanothiazol-2-ylamino)pyrrolidine-1-carboxylate] | – | < 0.1 µM | 86.6% | –
12 | N#Cc1ccc(N[C@@H]2CCN(C(=O)O[C@H]3C4CC5CC3C[C@](O)(C5)C4)C2)cc1 [Example 78, (R)-(trans-1-hydroxy-4-adamantyl) 3-(4-cyanophenylamino)pyrrolidine-1-carboxylate] | – | < 0.1 µM | 80.1% | –
13 | O=C(O)c1cnc(N[C@@H]2CCN(C(=O)O[C@H]3C4CC5CC3C[C@](O)(C5)C4)C2)nc1 [Example 108, 2-((R)-1-((trans-1-hydroxy-4-adamantyloxy)carbonyl)pyrrolidin-3-ylamino)pyrimidine-5-carboxylic acid] | – | > 0.1 µM | 14.2% | –
14 | Cc1ccc(C#N)c(N[C@@H]2CCN(C(=O)O[C@H]3C4CC5CC3C[C@](O)(C5)C4)C2)n1 [Example 83, (R)-(trans-1-hydroxy-4-adamantyl) 3-(3-cyano-6-methylpyridin-2-ylamino)pyrrolidine-1-carboxylate] | – | < 0.1 µM | 98.5% | –
15 | N#Cc1cnc(N[C@@H]2CCN(C(=O)O[C@H]3C4CC5CC3C[C@](O)(C5)C4)C2)c(Cl)c1 [Example 87, (R)-(trans-1-hydroxy-4-adamantyl) 3-(3-chloro-5-cyanopyridin-2-ylamino)pyrrolidine-1-carboxylate] | – | < 0.1 µM | 100% | –
16 | N#Cc1ccc(N[C@@H]2CCN(C(=O)O[C@H]3C4CC5CC3C[C@](C(N)=O)(C5)C4)C2)nn1 [Example 116, (R)-(trans-1-carbamoyl-4-adamantyl) 3-(6-cyanopyridazin-3-ylamino)pyrrolidine-1-carboxylate] | – | < 0.1 µM | 71.4% | –
17 | CNC(=O)c1cnc(N[C@@H]2CCN(C(=O)O[C@H]3C4CC5CC3C[C@](O)(C5)C4)C2)nc1 [Example 110, (R)-(trans-1-hydroxy-4-adamantyl) 3-(5-(methylcarbamoyl)pyrimidin-2-ylamino)pyrrolidine-1-carboxylate] | – | > 0.1 µM | 32.2% | –
18 | CC(C)(C)OC(=O)N1C[C@@H]2C[C@H]1CN2C(=O)OC1C2CC3CC(C2)CC1C3 (stereo partly drawn) [Example 7, (1S,4S)-2-tert-butyl 5-(2-adamantyl)-2,5-diazabicyclo[2.2.1]heptane-2,5-dicarboxylate] | – | < 0.1 µM | – | –
19 | CN(c1ccc(C(F)(F)F)cn1)C1CCN(C(=O)O[C@H]2C3CC4CC2C[C@](C(N)=O)(C4)C3)C1 (stereo partly drawn) [Example 43, (trans-1-carbamoyl-4-adamantyl) 3-(methyl(5-(trifluoromethyl)pyridin-2-yl)amino)pyrrolidine-1-carboxylate] | – | < 0.1 µM | 102% | –

The next lines start with results.

Row | inhibition at 0.111 µM | IC50 | inhibition at 0.1 µM [1] | SMILES | inhibition at 0.1 µM (read-out: Biological Test Example 2 Average % inhibition at 100 nm)
20 | 83.3% | < 0.1 µM | – | CC(C)(C)OC(=O)NC1(c2ccccc2)CCN(C(=O)NC2C3CC4CC(C3)CC2C4)C1 (stereo not drawn) [Example 60, tert-butyl 1-(2-adamantylcarbamoyl)-3-phenylpyrrolidin-3-ylcarbamate] | –
21 | – | < 0.1 µM | 78.7% | CC(C)(C)NC(=O)c1cc(Cl)cnc1N[C@@H]1CCN(C(=O)O[C@H]2C3CC4CC2C[C@](O)(C4)C3)C1 [Example 102, (R)-(trans-1-hydroxy-4-adamantyl) 3-(3-(tert-butylcarbamoyl)-5-chloropyridin-2-ylamino)pyrrolidine-1-carboxylate] | –
22 | – | < 0.1 µM | 90.8% | N#Cc1ccc2nc(N[C@@H]3CCN(C(=O)O[C@H]4C5CC6CC4C[C@](O)(C6)C5)C3)sc2c1 [Example 94, (R)-(trans-1-hydroxy-4-adamantyl) 3-(6-cyanobenzo[d]thiazol-2-ylamino)pyrrolidine-1-carboxylate] | –
23 | – | < 0.1 µM | 64% | O=C(O[C@H]1C2CC3CC1C[C@](O)(C3)C2)N1CC[C@@H](Nc2ncnc3ccccc23)C1 [Example 85, (R)-(trans-1-hydroxy-4-adamantyl) 3-(quinazolin-4-ylamino)pyrrolidine-1-carboxylate] | –
24 | – | < 0.1 µM | 63.6% | N#Cc1ccc2nc(N[C@@H]3CCN(C(=O)O[C@H]4C5CC6CC4C[C@](O)(C6)C5)C3)cnc2c1 [Example 91, (R)-(trans-1-hydroxy-4-adamantyl) 3-(6-cyanoquinoxalin-2-ylamino)pyrrolidine-1-carboxylate] | –
25 | – | < 0.1 µM | 54.4% | N#Cc1cncc(N[C@@H]2CCN(C(=O)O[C@H]3C4CC5CC3C[C@](O)(C5)C4)C2)n1 [Example 81, (R)-(trans-1-hydroxy-4-adamantyl) 3-(6-cyanopyrazin-2-ylamino)pyrrolidine-1-carboxylate] | –
26 | – | < 0.1 µM | 69.4% | Cc1nccc2nc(N[C@@H]3CCN(C(=O)O[C@H]4C5CC6CC4C[C@](O)(C6)C5)C3)ccc12 [Example 88, (R)-(trans-1-hydroxy-4-adamantyl) 3-(5-methyl-1,6-naphthyridin-2-ylamino)pyrrolidine-1-carboxylate] | –
27 | – | < 0.1 µM | 79.3% | NC(=O)[C@]12CC3CC(C1)[C@@H](OC(=O)N1CC[C@@H](Nc4nnc(C(F)(F)F)s4)C1)C(C3)C2 [Example 42, (R)-(trans-1-carbamoyl-4-adamantyl) 3-(5-(trifluoromethyl)-1,3,4-thiadiazol-2-ylamino)pyrrolidine-1-carboxylate] | –
28 | – | < 0.1 µM | 82.6% | O=C(NC1CC1)c1cc(Cl)cnc1N[C@@H]1CCN(C(=O)O[C@H]2C3CC4CC2C[C@](O)(C4)C3)C1 [Example 101, (R)-(trans-1-hydroxy-4-adamantyl) 3-(5-chloro-3-(cyclopropylcarbamoyl)pyridin-2-ylamino)pyrrolidine-1-carboxylate] | –
29 | – | < 0.1 µM | – | O=C(O[C@H]1C2CC3CC1C[C@](O)(C3)C2)N1CC[C@@H](Nc2ncc(Cl)cc2[N+](=O)[O-])C1 [Example 93, (R)-(trans-1-hydroxy-4-adamantyl) 3-(5-chloro-3-nitropyridin-2-ylamino)pyrrolidine-1-carboxylate] | –
30 | – | < 0.1 µM | 97% | CC1(Nc2ncccc2C#N)CCN(C(=O)O[C@H]2C3CC4CC2C[C@](C(N)=O)(C4)C3)C1 (stereo partly drawn) [Example 67, (trans-1-carbamoyl-4-adamantyl) 3-(3-cyanopyridin-2-ylamino)-3-methylpyrrolidine-1-carboxylate] | –
31 | – | < 0.1 µM | 95.6% | N#Cc1ccc2nc(N[C@@H]3CCN(C(=O)O[C@H]4C5CC6CC4C[C@](O)(C6)C5)C3)ccc2c1 [Example 90, (R)-(trans-1-hydroxy-4-adamantyl) 3-(6-cyanoquinolin-2-ylamino)pyrrolidine-1-carboxylate] | –
32 | – | < 0.1 µM | 98.4% | NC(=O)C12CC3CC(C1)C(OC(=O)N1CC[C@@H](Nc4ncccc4F)C1)C(C3)C2 (stereo partly drawn) [Example 63, (R)-(trans-1-carbamoyl-4-adamantyl) 3-(3-fluoropyridin-2-ylamino)pyrrolidine-1-carboxylate] | –
